Results published in ChEMBL document CHEMBL5260848, “Recent advancements in the development of bioactive pyrazoline derivatives” (Eur J Med Chem, 2020).
≈ marks a conversion by molar mass, not a printed value.

What was measured:
Aspergillus fumigatus [1] = assay: Antifungal activity against Aspergillus fumigatus assessed as zone of inhibition; assay type: functional
Candida albicans [2] = assay: Antifungal activity against Candida albicans assessed as zone of inhibition; assay type: functional
Aspergillus fumigatus [3] = assay: Antifungal activity against Aspergillus fumigatus; assay type: functional
Candida albicans [4] = assay: Antifungal activity against Candida albicans assessed as fungal growth inhibition; assay type: functional
Bacillus subtilis [5] = assay: Antimicrobial activity against Bacillus subtilis; assay type: functional
Escherichia coli [6] = assay: Antimicrobial activity against Escherichia coli assessed as inhibition of bacterial growth; assay type: functional
Staphylococcus aureus [7] = assay: Antimicrobial activity against Staphylococcus aureus assessed as inhibition of bacterial growth; assay type: functional
Proteus vulgaris [8] = assay: Antimicrobial activity against Proteus vulgaris assessed as inhibition of bacterial growth; assay type: functional
[9] = tested on: Bordetella bronchiseptica; assay: Antibacterial activity against Bordetella bronchiseptica ATCC 4617 by plate dilution method; assay type: functional
Candida albicans [10] = assay: Antifungal activity against Candida albicans ATCC 2091 by plate dilution method relative to control; assay type: functional
Aspergillus niger [11] = assay: Antifungal activity against Aspergillus niger MTCC 281 by plate dilution method relative to control; assay type: functional
Aspergillus flavus [12] = assay: Antifungal activity against Aspergillus flavus MTCC 277 by plate dilution method relative to control; assay type: functional
Monascus purpureus = assay: Antifungal activity against Monascus purpureus MTCC 369 by plate dilution method relative to control; assay type: functional
Penicillium citrinum = assay: Antifungal activity against Penicillium citrinum NCIM 768 by plate dilution method relative to control; assay type: functional
Staphylococcus aureus [13] = assay: Antibacterial activity against Staphylococcus aureus ATCC 25923 by plate dilution method; assay type: functional
Enterococcus faecalis = assay: Antibacterial activity against Enterococcus faecalis ATCC 29212 by plate dilution method; assay type: functional
[14] = tested on: Staphylococcus epidermidis; assay: Antibacterial activity against Staphylococcus epidermidis ATCC 12228 by plate dilution method; assay type: functional
Bacillus subtilis [15] = assay: Antibacterial activity against Bacillus subtilis ATCC 6633 by plate dilution method; assay type: functional
Bacillus cereus = assay: Antibacterial activity against Bacillus cereus ATCC 9946 by plate dilution method; assay type: functional
Escherichia coli [16] = assay: Antibacterial activity against Escherichia coli ATCC 25922 by plate dilution method; assay type: functional
Pseudomonas aeruginosa [17] = assay: Antibacterial activity against Pseudomonas aeruginosa ATCC 27853 by plate dilution method; assay type: functional
Klebsiella pneumoniae [18] = assay: Antibacterial activity against Klebsiella pneumoniae ATCC 700603 by plate dilution method; assay type: functional
Proteus vulgaris [19] = assay: Antibacterial activity against Proteus vulgaris ATCC 9920 by plate dilution method; assay type: functional
[20] = tested on: Mycobacterium tuberculosis; assay type: functional; settings: time 5 day
[21] = tested on: Mycobacterium tuberculosis; assay type: functional; settings: time 5 day; remark: listed apart in the source
[22] = tested on: Mycobacterium tuberculosis; assay type: functional; settings: time 5 day; remark: listed apart in the source
Escherichia coli [23] = assay: Antibacterial activity against Escherichia coli incubated for 24 hrs by disc diffusion method; assay type: functional
Aspergillus fumigatus [24] = assay: Antifungal activity against Aspergillus fumigatus incubated for 24 hrs by disc diffusion method; assay type: functional
Aspergillus niger [25] = assay: Antifungal activity against Aspergillus niger incubated for 24 hrs by disc diffusion method; assay type: functional
Aspergillus flavus [26] = assay: Antifungal activity against Aspergillus flavus incubated for 24 hrs by disc diffusion method; assay type: functional
[27] = tested on: Mycobacterium tuberculosis; assay: microbe, parasite or virus in culture; settings: 120 h
Staphylococcus aureus [28] = assay: microbe, parasite or virus in culture; settings: 24 h
Bacillus subtilis [29] = assay: microbe, parasite or virus in culture; settings: 24 h
Pseudomonas aeruginosa [30] = assay: microbe, parasite or virus in culture; settings: 24 h
Candida albicans [31] = assay: microbe, parasite or virus in culture; settings: 24 h
Klebsiella pneumoniae [32] = assay: Antimicrobial activity against Klebsiella pneumoniae; assay type: functional
Staphylococcus aureus [33] = assay: microbe, parasite or virus in culture
Escherichia coli [34] = assay: microbe, parasite or virus in culture
[35] = Inhibition of Bacillus subtilis DNA gyrase
Staphylococcus aureus [36] = assay: microbe, parasite or virus in culture; remark: listed apart in the source
Bacillus subtilis [37] = assay: microbe, parasite or virus in culture
Escherichia coli [38] = assay: Antibacterial activity against Escherichia coli by agar dilution method; assay type: functional
Pseudomonas aeruginosa [39] = assay: Antibacterial activity against Pseudomonas aeruginosa by agar dilution method; assay type: functional
Staphylococcus aureus [40] = assay: Antibacterial activity against Staphylococcus aureus by agar dilution method; assay type: functional
Bacillus subtilis [41] = assay: Antibacterial activity against Bacillus subtilis by agar dilution method; assay type: functional
Escherichia coli [42] = assay: Potency index, ratio of ampicillin MIC to compound MIC for Escherichia coli by agar dilution method; assay type: functional
Staphylococcus aureus [43] = assay: Potency index, ratio of ampicillin MIC to compound MIC for Staphylococcus aureus by agar dilution method; assay type: functional
Bacillus subtilis [44] = assay: Potency index, ratio of ampicillin MIC to compound MIC for Bacillus subtilis by agar dilution method; assay type: functional
Candida albicans [45] = assay: Antifungal activity against Candida albicans by agar dilution method; assay type: functional
Aspergillus niger [46] = assay: Antifungal activity against Aspergillus niger by agar dilution method; assay type: functional
[47] = Antioxidant activity assessed as DPPH radical scavenging activity; assay type: functional

SMILES: Clc1ccc(C2CC(c3cccs3)=NN2c2nc(-c3ccccc3)cs2)c(Cl)c1 (stereo unspecified)
- inhibition zone (IZ) (Aspergillus fumigatus [1]): 28 mm
- inhibition zone (IZ) (Candida albicans [2]): 23 mm
- MIC (Aspergillus fumigatus [3]): 312 µg/mL (≈ 685 µM)
- MIC (Candida albicans [4]): 62.5 µg/mL (≈ 137 µM)
- MIC (Bacillus subtilis [5]): 9.77 µg/mL (≈ 21.4 µM)
- MIC (Escherichia coli [6]): 9.77 µg/mL (≈ 21.4 µM)
- MIC (Staphylococcus aureus [7]): 9.77 µg/mL (≈ 21.4 µM)
- MIC (Proteus vulgaris [8]): 9.77 µg/mL (≈ 21.4 µM)

SMILES: O=c1oc2ccc(F)cc2cc1-c1csc(N2N=C(c3ccc(F)cc3)CC2c2cc3ccccc3nc2Cl)n1 (stereo unspecified)
- MIC [9]: 50 µg/mL (≈ 87.6 µM)
- Activity (Candida albicans [10]): 98.95%
- Activity (Aspergillus niger [11]): 83.59%
- Activity (Aspergillus flavus [12]): 98%
- Activity (Monascus purpureus): 79.72%
- Activity (Penicillium citrinum): 91.42%
- MIC (Staphylococcus aureus [13]): 50 µg/mL (≈ 87.6 µM)
- MIC (Enterococcus faecalis): 50 µg/mL (≈ 87.6 µM)
- MIC [14]: 50 µg/mL (≈ 87.6 µM)
- MIC (Bacillus subtilis [15]): 50 µg/mL (≈ 87.6 µM)
- MIC (Bacillus cereus): 50 µg/mL (≈ 87.6 µM)
- MIC (Escherichia coli [16]): 50 µg/mL (≈ 87.6 µM)
- MIC (Pseudomonas aeruginosa [17]): 50 µg/mL (≈ 87.6 µM)
- MIC (Klebsiella pneumoniae [18]): 50 µg/mL (≈ 87.6 µM)
- MIC (Proteus vulgaris [19]): 50 µg/mL (≈ 87.6 µM)

SMILES: O=C(NNS(=O)(=O)c1ccccc1)N1N=C(c2ccccc2)CC1c1ccccc1 (stereo unspecified)
- Ratio [20]: 7.81
- Ratio [21]: 3.9
- Ratio [22]: 3.9
- MIC (Escherichia coli [23]): 25 µg/mL (≈ 59.5 µM)
- MIC (Aspergillus fumigatus [24]): 25 µg/mL (≈ 59.5 µM)
- MIC (Aspergillus niger [25]): 25 µg/mL (≈ 59.5 µM)
- MIC (Aspergillus flavus [26]): 25 µg/mL (≈ 59.5 µM)
- MIC [27]: 0.8 µg/mL (≈ 1.9 µM)
- MIC (Staphylococcus aureus [28]): 25 µg/mL (≈ 59.5 µM)
- MIC (Bacillus subtilis [29]): 25 µg/mL (≈ 59.5 µM)
- MIC (Pseudomonas aeruginosa [30]): 25 µg/mL (≈ 59.5 µM)
- MIC (Candida albicans [31]): 25 µg/mL (≈ 59.5 µM)

SMILES: CCOC(=O)C1N=NN(CC(=O)N2N=C(c3ccccc3)CC2c2cccs2)C1C(=O)OCC (stereo unspecified)
- MIC (Klebsiella pneumoniae [32]): 15 µg/mL (≈ 31 µM)
- MIC (Staphylococcus aureus [33]): 3.9 µg/mL (≈ 8.07 µM)
- MIC (Escherichia coli [34]): 3.9 µg/mL (≈ 8.07 µM)

SMILES: CC(=O)N1N=C(c2ccc(C)cc2)CC1c1cc(Cl)ccc1Oc1c([N+](=O)[O-])cc(C(F)(F)F)cc1[N+](=O)[O-] (stereo unspecified)
- IC50 [35]: 0.125 µg/mL (≈ 0.222 µM)
- MIC (Staphylococcus aureus [36]): 0.39 µg/mL (≈ 0.693 µM)
- MIC (Bacillus subtilis [37]): 0.39 µg/mL (≈ 0.693 µM)

SMILES: COc1cccc2cc(/C=C/C(=O)c3cc(Br)ccc3O)c3nnnn3c12
- MIC (Escherichia coli [38]): 50 µg/mL (≈ 118 µM)
- MIC (Pseudomonas aeruginosa [39]): 25 µg/mL (≈ 58.8 µM)
- MIC (Staphylococcus aureus [40]): 50 µg/mL (≈ 118 µM)
- MIC (Bacillus subtilis [41]): 50 µg/mL (≈ 118 µM)
- Ratio (Escherichia coli [42]): 2
- Ratio (Staphylococcus aureus [43]): 5
- Ratio (Bacillus subtilis [44]): 5
- MIC (Candida albicans [45]): 25 µg/mL (≈ 58.8 µM)
- MIC (Aspergillus niger [46]): 25 µg/mL (≈ 58.8 µM)
- IC50 [47]: 22.4 µg/mL (≈ 52.7 µM)
